Reference: patent publication EP0312283A2, “Di-or tripeptide renin inhibitors containing lactam conformational restrictions in ACHPA” (Merck & Co., Inc., priority 1987, dated 1989)

Tested on: human plasma renin
Assay: In vitro inhibition of human plasma renin (Boger et al. assay)
Format: biochemical
Description: In vitro inhibition of human plasma renin was measured as described by Boger, et al., J. Med. Chem (1985) 28, 1779.
They were analyzed for purity by HPLC (30 minute gradient, 5% CH3CN-H2O to 95% CH3CN-H20 buffered with 0.1% H3PO4; C18 reverse phase column), and were analyzed for composition by C, H, and N combustion analysis. IC50 values were measured in vitro using the human plasma renin assay, as described by Boger et al. J. Med. Chem. (1985) 28, 1779.

Substance “Boc-Phe-His-(ACHP-1-(2-Hydroxyethyl)-2-Pyrrolidinone [Example 3H]” has an IC50 of 7.7 nM.
